Source: ChEMBL document CHEMBL1137915, “SAR and factor IXa crystal structure of a dual inhibitor of factors IXa and Xa” (Bioorg Med Chem Lett, 2004)

Columns and labels:
Coagulation factor X = Coagulation factor X (Homo sapiens, UniProt P00742); experiment: Binding affinity towards human factor Xa
Coagulation factor IX = Coagulation factor IX (Homo sapiens, UniProt P00740); experiment: Binding affinity towards human factor IXa
Chain of Coagulation factor IX (P00740 47-191 limits assumed): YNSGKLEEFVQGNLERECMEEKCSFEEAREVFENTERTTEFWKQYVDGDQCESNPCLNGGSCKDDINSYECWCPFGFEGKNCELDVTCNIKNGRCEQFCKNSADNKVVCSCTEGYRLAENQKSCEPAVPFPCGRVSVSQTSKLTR
Chain of Coagulation factor IX (P00740 227-461 limits assumed): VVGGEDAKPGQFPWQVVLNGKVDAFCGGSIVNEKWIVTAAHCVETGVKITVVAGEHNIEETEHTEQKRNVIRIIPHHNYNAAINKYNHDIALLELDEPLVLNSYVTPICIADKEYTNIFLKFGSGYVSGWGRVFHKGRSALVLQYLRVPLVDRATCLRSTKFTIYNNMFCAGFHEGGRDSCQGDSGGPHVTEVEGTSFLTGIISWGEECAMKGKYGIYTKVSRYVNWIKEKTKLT

Chain of Coagulation factor X (P00742 41-179 limits assumed): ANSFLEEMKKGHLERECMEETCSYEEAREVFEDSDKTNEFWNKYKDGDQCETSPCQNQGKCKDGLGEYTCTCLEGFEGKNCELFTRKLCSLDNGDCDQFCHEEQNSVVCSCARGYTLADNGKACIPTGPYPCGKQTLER
Chain of Coagulation factor X (P00742 235-488 limits assumed): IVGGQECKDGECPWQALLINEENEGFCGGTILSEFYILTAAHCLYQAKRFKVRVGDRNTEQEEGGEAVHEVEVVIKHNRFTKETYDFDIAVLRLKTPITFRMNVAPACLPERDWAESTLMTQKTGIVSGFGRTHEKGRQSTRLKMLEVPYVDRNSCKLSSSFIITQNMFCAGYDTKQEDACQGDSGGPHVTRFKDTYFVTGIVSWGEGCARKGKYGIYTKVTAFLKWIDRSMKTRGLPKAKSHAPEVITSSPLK

| Ki (Coagulation factor X) | Ki (Coagulation factor IX) | SMILES |
| --- | --- | --- |
| 0.19 nM | 44 nM | N=C(N)c1cccc(-n2nc(Cn3cncn3)cc2C(=O)Nc2ccc(-n3cnc4ccccc43)cc2)c1 |
|  | 5.5 nM | N=C(N)c1cccc(-n2nc(-c3cccnc3)cc2C(=O)Nc2ccc(-n3cnc4ccccc43)cc2)c1 |
| 0.02 nM | 7.9 nM | N=C(N)c1cccc(-n2nc(C(F)(F)F)cc2C(=O)Nc2ccc(-n3cnc4ncccc43)cc2F)c1 |
| 0.04 nM | 7.9 nM | N=C(N)c1cccc(-n2nc(C(F)(F)F)cc2C(=O)Nc2ccc(-n3cnc4ccncc43)cc2F)c1 |
|  | 11 nM | N=C(N)c1cccc(-n2nc(C(F)(F)F)cc2C(=O)Nc2ccc(-n3cnc4cc([N+](=O)[O-])ccc43)cc2F)c1 |
|  | 1900 nM | Cc1cc(C(=O)Nc2ccc(-c3ccccc3S(N)(=O)=O)cc2)n(-c2cccc(C(=N)N)c2)n1 |
| 0.09 nM | 72 nM | N=C(N)c1cccc(-n2nc(C(F)(F)F)cc2C(=O)Nc2ccc(-n3ccnc3)cc2)c1 |
|  | 82 nM | Cc1cc(C(=O)Nc2ccc(-n3cnc4ccccc43)cc2)n(-c2cccc(C(=N)N)c2)n1 |
| 0.03 nM | 8 nM | N=C(N)c1cccc(-n2nc(C(F)(F)F)cc2C(=O)Nc2ccc(-n3cnc4cnccc43)cc2F)c1 |
|  | 11 nM | N=C(N)c1cccc(-n2nc(C(F)(F)F)cc2C(=O)Nc2ccc(-n3cnc4cc(N)ccc43)cc2F)c1 |
|  | 4.2 nM | N=C(N)c1cccc(-n2nc(C(F)(F)F)cc2C(=O)Nc2ccc(-n3cnc4cc(Cl)ccc43)cc2F)c1 |
|  | 20 nM | N=C(N)c1cccc(-n2nc(Cn3ccnn3)cc2C(=O)Nc2ccc(-n3cnc4ccccc43)cc2)c1 |
|  | 6.4 nM | N=C(N)c1cccc(-n2nc(C(F)(F)F)cc2C(=O)Nc2ccc(-n3cnc4cc(C(F)(F)F)ccc43)cc2F)c1 |
|  | 15 nM | N=C(N)c1cccc(-n2nc(-c3cccnc3)cc2C(=O)Nc2ccc(-n3cnc4cc(Cl)ccc43)cc2)c1 |
|  | 120 nM | N=C(N)c1cccc(-n2nc(Cn3ccnc3)cc2C(=O)Nc2ccc(-n3cnc4ccccc43)cc2)c1 |
| 0.05 nM | 190 nM | N=C(N)c1cccc(-n2nc(C(F)(F)F)cc2C(=O)Nc2ccc(N3C(=O)N=C4C=CC=CC43)cc2)c1 (stereo unspecified) |
|  | 1700 nM | N=C(N)c1cccc(-n2nc(C(F)(F)F)cc2C(=O)Nc2ccc(-n3ccc4ccccc43)cc2F)c1 |
|  | 5.1 nM | N=C(N)c1cccc(-n2nc(C(F)(F)F)cc2C(=O)Nc2ccc(-n3cnc4ccc(Cl)cc43)cc2F)c1 |
|  | 10 nM | Cc1ccc2c(c1)ncn2-c1ccc(NC(=O)c2cc(C(F)(F)F)nn2-c2cccc(C(=N)N)c2)c(F)c1 |
|  | 11 nM | N=C(N)c1cccc(-n2nc(Cn3cnnn3)cc2C(=O)Nc2ccc(-n3cnc4ccccc43)cc2)c1 |
|  | 26 nM | N=C(N)c1cccc(-n2nc(C(F)(F)F)cc2C(=O)Nc2ccc(-n3cnc4cc(Cl)c(Cl)cc43)cc2F)c1 |
| 0.02 nM | 13 nM | N=C(N)c1cccc(-n2nc(C(F)(F)F)cc2C(=O)Nc2ccc(-n3cnc4cccnc43)cc2F)c1 |
| 0.09 nM | 11 nM | N=C(N)c1cccc(-n2nc(C(F)(F)F)cc2C(=O)Nc2ccc(-n3cnc4ccccc43)cc2)c1 |
